Calls of active or inactive are those of the source. No cut-off for these calls is given here.
Tests used:
[1] = molecular target: T1, MAP kinase p38 (Homo sapiens) (UniProt O15264+Q15759+Q16539+P53778); assay: Increase in p38 MAPK phosphorylation in human NCI-H1299 cells at 0.3 uM in presence of CPT by Western blot method; format: cell-based
NCI-H1299 [2] = assay: Cytotoxicity against human NCI-H1299 cells assessed as reduction in cell viability after 48 hrs by MTT assay; format: functional, cell-based; details: NCI-H1299, 48 h
NCI-H446 [3] = assay: Cytotoxicity against human NCI-H446 cells assessed as reduction in cell viability at 0.3 to 0.6 uM after 48 hrs in presence of HCPT by MTT assay; format: functional, cell-based
NCI-H1299 [4] = assay: Induction of apoptosis in human NCI-H1299 cells at 0.3 uM up to 20 mins in presence of HCPT by acridine orange/ ethidium bromide staining based fluorescence microscopic method relative to control; format: functional
NCI-H446 [5] = assay: Cytotoxicity against human NCI-H446 cells assessed as reduction in cell viability after 48 hrs by MTT assay; format: functional, cell-based; details: NCI-H446, 48 h
NCI-H460 [6] = assay: Cytotoxicity against human NCI-H460 cells assessed as reduction in cell viability at 0.3 to 0.6 uM after 48 hrs in presence of HCPT by MTT assay; format: functional, cell-based
NCI-H446 [7] = assay: Induction of apoptosis in human NCI-H446 cells assessed as downregulation of Bcl2 expression at 0.6 uM in presence of CPT by Western blot method; format: functional, cell-based
NCI-H1299 [8] = assay: Decrease in p38 MAPK protein expression in human NCI-H1299 cells at 0.3 uM in presence of HCPT by Western blot method; format: functional, cell-based
NCI-H446 [9] = assay: Induction of apoptosis in human NCI-H446 cells assessed as activation of caspase-3/7 at 0.6 uM after 48 hrs in presence of HCPT by luciferase reporter gene assay; format: functional, cell-based
NCI-H1299 [10] = assay: Induction of apoptosis in human NCI-H1299 cells assessed as increase in caspase-9 expression at 0.3 uM in presence of CPT by Western blot method; format: functional, cell-based
NCI-H1299 [11] = assay: Induction of apoptosis in human NCI-H1299 cells assessed as activation of caspase-3/7 at 0.3 uM after 48 hrs by luciferase reporter gene assay; format: functional, cell-based
NCI-H460 [12] = assay: Induction of apoptosis in human NCI-H460 cells assessed as increase in caspase-9 expression at 0.6 uM in presence of HCPT by Western blot method; format: functional, cell-based
Homo sapiens [13] = species on record: Homo sapiens; assay: Decrease in Akt phosphorylation in human NCI-H460 cells at 0.6 uM in presence of CPT by Western blot method; format: cell-based
NCI-H1299 [14] = assay: Effect on ERK1/2 protein expression in human NCI-H1299 cells at 0.3 uM in presence of HCPT by Western blot method; format: functional, cell-based
NCI-H460 [15] = assay: Induction of apoptosis in human NCI-H460 cells at 0.6 uM up to 20 mins in presence of CPT by acridine orange/ ethidium bromide staining based fluorescence microscopic method relative to control; format: functional
NCI-H446 [16] = assay: Induction of apoptosis in human NCI-H446 cells assessed as activation of caspase-3/7 at 0.6 uM after 48 hrs by luciferase reporter gene assay; format: functional, cell-based
[17] = molecular target: c-Jun N-terminal kinase, JNK (Homo sapiens) (UniProt P45983+P53779+P45984); assay: Increase in JNK phosphorylation in human NCI-H460 cells at 0.6 uM in presence of CPT by Western blot method; format: cell-based
NCI-H446 [18] = assay: Induction of apoptosis in human NCI-H446 cells assessed as increase in caspase-9 expression at 0.6 uM in presence of HCPT by Western blot method; format: functional, cell-based
[19] = molecular target: T1, MAP kinase p38 (Homo sapiens); assay: Effect on p38 MAPK phosphorylation in human NCI-H446 cells at 0.6 uM in presence of CPT by Western blot method; format: cell-based
NCI-H460 [20] = assay: Induction of apoptosis in human NCI-H460 cells at 0.6 uM up to 20 mins in presence of HCPT by acridine orange/ ethidium bromide staining based fluorescence microscopic method relative to control; format: functional
[21] = molecular target: T1, MAP kinase p38 (Homo sapiens); assay: Increase in p38 MAPK phosphorylation in human NCI-H1299 cells at 0.3 uM in presence of HCPT by Western blot method; format: cell-based
NCI-H1299 [22] = assay: Induction of apoptosis in human NCI-H1299 cells assessed as increase in caspase-9 expression at 0.3 uM in presence of HCPT by Western blot method; format: functional, cell-based
NCI-H446 [23] = assay: Induction of apoptosis in human NCI-H446 cells at 0.6 uM up to 20 mins in presence of HCPT by acridine orange/ ethidium bromide staining based fluorescence microscopic method relative to control; format: functional
Homo sapiens [24] = species on record: Homo sapiens; assay: Effect on Akt phosphorylation in human NCI-H446 cells at 0.6 uM in presence of CPT by Western blot method; format: cell-based
NCI-H1299 [25] = assay: Induction of apoptosis in human NCI-H1299 cells assessed as activation of caspase-3/7 at 0.3 uM after 48 hrs in presence of CPT by luciferase reporter gene assay; format: functional, cell-based
NCI-H446 [26] = assay: Induction of apoptosis in human NCI-H446 cells assessed as increase in caspase-9 expression at 0.6 uM in presence of CPT by Western blot method; format: functional, cell-based
NCI-H446 [27] = assay: Induction of apoptosis in human NCI-H446 cells at 0.6 uM in presence of HCPT by Annexin-V FITC/propidium iodide staining based flow cytometry; format: functional, cell-based; details: TDE = time-dependent effect
NCI-H446 [28] = assay: Induction of apoptosis in human NCI-H446 cells at 0.6 uM in presence of CPT by Annexin-V FITC/propidium iodide staining based flow cytometry; format: functional, cell-based; details: TDE = time-dependent effect
NCI-H446 [29] = assay: Effect on p38 MAPK protein expression in human NCI-H446 cells at 0.6 uM in presence of CPT by Western blot method; format: functional, cell-based
NCI-H520 [30] = assay: Cytotoxicity against human NCI-H520 cells assessed as reduction in cell viability at 0.3 to 0.6 uM after 48 hrs in presence of HCPT by MTT assay; format: functional, cell-based
NCI-H460 [31] = assay: Induction of apoptosis in human NCI-H460 cells assessed as activation of caspase-3/7 at 0.6 uM after 48 hrs in presence of CPT by luciferase reporter gene assay; format: functional, cell-based
[32] = molecular target: T1, MAP kinase p38 (Homo sapiens); assay: Increase in p38 MAPK phosphorylation in human NCI-H460 cells at 0.6 uM in presence of HCPT by Western blot method; format: cell-based
NCI-H446 [33] = assay: Induction of apoptosis in human NCI-H446 cells assessed as increase in Bax expression at 0.6 uM in presence of CPT by Western blot method; format: functional, cell-based
NCI-H446 [34] = assay: Induction of apoptosis in human NCI-H446 cells assessed as activation of caspase-3/7 at 0.6 uM after 48 hrs in presence of CPT by luciferase reporter gene assay; format: functional, cell-based
NCI-H520 [35] = assay: Cytotoxicity against human NCI-H520 cells assessed as reduction in cell viability at 0.3 to 0.6 uM after 48 hrs in presence of CPT by MTT assay; format: functional, cell-based
Homo sapiens [36] = species on record: Homo sapiens; assay: Effect on Akt phosphorylation in human NCI-H446 cells at 0.6 uM in presence of HCPT by Western blot method; format: cell-based

With `C[C@@H]1CC[C@@]2(OC1)O[C@H]1C[C@H]3[C@@H]4CC=C5C[C@@H](O[C@@H]6O[C@H](CO)[C@@H](O[C@@H]7O[C@@H](CO)[C@H](O)[C@H]7O)[C@H](O)[C@H]6O[C@@H]6O[C@@H](C)[C@H](O)[C@@H](O)[C@H]6O)CC[C@]5(C)[C@H]4CC[C@]3(C)[C@H]1[C@@H]2C` the Activity [1] was “Active”, the IC50 (NCI-H1299 [2]) was under 1000 nM and the Activity (NCI-H446 [3]) was “Active”. For the same compound, the “fold change (FC)” value (NCI-H1299 [4]) was 2, the IC50 (NCI-H446 [5]) was under 1000 nM and the Activity (NCI-H460 [6]) was “Active”. For the same compound, the Activity (NCI-H446 [7]) was “Active”, the Activity (NCI-H1299 [8]) was “Active” and the Activity (NCI-H446 [9]) was “Active”. The Activity (NCI-H1299 [10]) was “Active”, the Activity (NCI-H1299 [11]) was “inactive” and the Activity (NCI-H460 [12]) was “Active”. The Activity (Homo sapiens [13]) was “Active”, the Activity (NCI-H1299 [14]) was “inactive” and the “fold change (FC)” value (NCI-H460 [15]) was 2. The Activity (NCI-H446 [16]) was “inactive”, the Activity [17] was “Active” and the Activity (NCI-H446 [18]) was “Active”. The Activity [19] was “inactive”, the “fold change (FC)” value (NCI-H460 [20]) was 2 and the Activity [21] was “Active”. For the same compound, the Activity (NCI-H1299 [22]) was “Active”, the “fold change (FC)” value (NCI-H446 [23]) was 2 and the Activity (Homo sapiens [24]) was “Active”. For the same compound, the Activity (NCI-H1299 [25]) was “Active”, the Activity (NCI-H446 [26]) was “Active” and the Activity (NCI-H446 [27]) was “Tde”. For the same compound, the Activity (NCI-H446 [28]) was “Tde”, the Activity (NCI-H446 [29]) was “inactive” and the Activity (NCI-H520 [30]) was “Active”. For the same compound, the Activity (NCI-H460 [31]) was “Active”, the Activity [32] was “Active” and the Activity (NCI-H446 [33]) was “Active”. For the same compound, the Activity (NCI-H446 [34]) was “Active”, the Activity (NCI-H520 [35]) was “Active” and the Activity (Homo sapiens [36]) was “Active”.

From ChEMBL document CHEMBL4000165, “Chemosensitizing effect of Paris Saponin I on Camptothecin and 10-hydroxycamptothecin in lung cancer cells via p38 MAPK, ERK, and Akt signaling pathways” (Eur J Med Chem, 2017)
